Experiment [1] relates to human primary breast tumor cells. As to the kind of experiment: Apoptosis by PI staining (subG0/G1 cells). In kind it is cell-based. The following applies: 50 μg/ml Poly IC, 48 h; PBS 19.5%. An excerpt: Human primary breast tumor sample was obtained from the Centre Léon Bérard (Lyon, France) in agreement with the Hospital bioethical protocols. A single cell suspension was obtained after digestion with Collagenase A (Sigma-Aldrich) and washes and enrichment in Human Epithelial Antigen (HEA) positive cells using HEA-microbeads (Mylteni Biotech, Bergisch Gladbach, Germany) according to manufacturer's instructions. The final single cell suspension contained more than 80% HEA positive cells and less than 2% CD4^+ hematopoietic contaminants.
Cell recovery after treatment with TLR ligands was measured by crystal violet staining (Sigma-Aldrich). Cells were plated at 10^4 cells/well in 96 well plates. […] Sub-diploid cells were detected by staining with 3 μg/mL propidium iodide (PI) (Molecular probes, Eugene, Oreg.), after overnight permeabilization in 70% ethanol. Fluorescence was analyzed by flow cytometry on a FACScalibur (Becton Dickinson, Mountain View, Calif.) equipped with a doublet-discrimination module and using Celiquest Pro software (Becton Dickinson).
We then tried to determine the effect that Poly IC has on human primary breast tumor cells. […] Apoptosis was measured by PI staining. […]

For experiment [2], the system named is colon cancer cell line LS174T. As to the kind of experiment: BrdU incorporation and propidium iodide DNA content by FACS. The format is cell-based. Here is the method:
Two cell lines, the colon cancer cell line LS174T and the breast cancer cell line Cama-1, were analyzed for death and cell cycle changes. Cells were cultured for 48 hours in either the presence or absence of Poly IC (5 μg/ml). Following a 30-minute pulse with 1 μg/ml bromodeoxyuridine (BrdU), the cells were fixed overnight at 4° C. in 70% ethanol before staining with FITC-coupled anti-BrdU monoclonal antibody and 3 μg/ml propidium iodide. Cell death and the cell cycle were analyzed by flow cytometry (FACS). BrdU incorporation is a measure of proliferation, whereas propidium iodide staining allows the quantification of DNA content, in particular the subdiploid cell population undergoing apoptosis.
Background: Uptake of a labelled nucleoside into DNA is a usual measure of proliferation.

The next experiment has as its system BT483. In words: Cell recovery by crystal violet staining. The format is cell-based, human. The settings on record: 50 μg/ml Poly IC, 72 h. The procedure:
(§1) Cell recovery after treatment with TLR ligands was measured by crystal violet staining (Sigma-Aldrich). Cells were plated at 10^4 cells/well in 96 well plates. After 72 hours of culture either with or without TLR ligand, the cells were washed with PBS, fixed in 6% formaldehyde (Sigma-Aldrich) for 20 minutes, washed twice, and then stained with 0.1% crystal violet for 10 minutes. After washes and incubation in 1% SDS for 1 hour, the absorbance was read at 605 nm on a Vmax plate reader (Molecular Devices, Sunnyvale, Calif.). Annexin V staining was performed with an annexin-FITC apoptosis detection kit (BD Pharmingen, San Diego, Calif.) according to the manufacturer's instructions. Sub-diploid cells were detected by staining with 3 μg/mL propidium iodide (PI) (Molecular probes, Eugene, Oreg.), after overnight permeabilization in 70% ethanol. Fluorescence was analyzed by flow cytometry on a FACScalibur (Becton Dickinson, Mountain View, Calif.) equipped with a doublet-discrimination module and using Celiquest Pro software (Becton Dickinson).
(§2) Four human breast tumor cell lines, Cama-1, SW527, BT483 and MCF-7, were analyzed for cell death in response to Poly IC. Cells were cultured for 72 hours with 5 μg/ml PGN, 50 μg/ml Poly IC or 10 μg/ml LPS. Control cells were cultured with PBS. Cytotoxicity was assessed by crystal violet staining and expressed as a percent of control.

A further experiment deals with SW527. As to the kind of experiment: Cell recovery by crystal violet staining. In kind it is cell-based, human. The following applies: 50 μg/ml Poly IC, 72 h. The procedure: as §1, §2
The subject of another experiment is MCF-7. In words: Cell recovery by crystal violet staining. In kind it is cell-based, human. The following applies: 50 μg/ml Poly IC, 72 h. Here is the method: as §1, §2
The subject of a further experiment is Cama-1. In words: Cell recovery by crystal violet staining. In kind it is cell-based, human. The following applies: 50 μg/ml Poly IC, 72 h. The procedure: as §1, §2
Experiment [3] deals with phosphorylated Stat1 (tyrosine 701). In words: Western Blot of Cama-1 cell lysate for phosphorylated Stat1. In kind it is cell-based, human. The following applies: 5 μg/ml Poly IC. Here is the method:
(§3) Cama-1 cells were lysed in 1% Nonidet-P40-containing buffer. 20 μg total protein was loaded per lane on SDS-Polyacrylamide gels (Invitrogen). Western Blots (WB) were performed with standard techniques using the antibodies described above. Anti IRAK-4 monoclonal antibodies were generated in the laboratory according to the protocol described in Fossiez et al., “T cell interleukin-17 induces stromal cells to produce proinflammatory and hematopoietic cytokines”, J. Exp. Med., vol. 183(6), pp. 2593-2603 (1996).
(§4) The involvement of type 1 interferon in TLR3 mediated apoptosis was evaluated. Cama-1 cells were incubated with 5 μg/ml Poly IC for either 0 hours, 1 hour, 6 hours, 18 hours or 24 hours. The presence of IFN-β, phosphorylated Stat1 (tyrosine 701) (P-Stat-1) and total Stat-1 in the cell lysate were analyzed by Western Blot.
(In general: In western blotting, separated proteins are transferred to a membrane and probed.)

The test system of another experiment is IFN-β. As to the kind of experiment: Western Blot of Cama-1 cell lysate for IFN-β. The settings on record: 5 μg/ml Poly IC, 0 to 24 hours. The format is cell-based, human. The procedure:
as §3, §4

Experiment [4] has as its system Cama-1, SW527, BT483 and MCF-7. As to the kind of experiment: Cell recovery by crystal violet staining, four breast tumor cell lines together. In kind it is cell-based, human. The following applies: 72 h; 5 μg/ml PGN, 50 μg/ml Poly IC or 10 μg/ml LPS; average of the four cell lines. Here is the method: as §1, §2
Furthermore, additional TLR ligands were tested to determine any possible effects on cellular toxicity. The ligands tested were PGN, LPS, Flagellin, R848 and CpG. Cells were cultured for 72 hours with 5 μg/ml PGN, 10 μg/ml LPS, 50 ng/ml flagellin, 6 μg/ml R848, 10 μg/ml CpG ODNs, or with PBS as control. Cell recovery was assessed by crystal violet staining and expressed as a percent of control.

The next experiment deals with eye tumors. In words: Eye tumor development in TRP-Tag/IFNαβγR−/− mice. The following applies: 100 μg/dose intravenous on days 21, 23, 25, 27 and 29. The format is in vivo, mouse. The procedure:
We analyzed the effect of IFN on Poly IC induced apoptosis in vivo. TRP-Tag mice express SV40 T antigen in the retinal pigmented epithelium and typically develop eye tumors with complete penetrance within weeks from birth.
In these experiments, fourteen to sixteen TRP-Tag/IFNαβγR−/− mice per experiment (these are TPR-Tag mice that had been crossed to mice simultaneously deficient in the receptor for type I interferons (IFNαβR) and the receptor for type II interferon (IFNγR)) were treated on days 21, 23, 25, 27 and 29 by intravenous injections of either Poly IC (100 μg/dose) or PBS. The kinetics of visible eye tumor development was monitored 2-3 times per week.

For “polyinosinic-polycytidylic acid [Poly IC]”, in experiment [1], the “cells with low DNA content (subG0/G1 cells)” value was 38.6%. For the same substance, the “percentage of cells with subdiploid DNA content” value in experiment [2] (48 h with 5 μg/ml Poly IC (3% before treatment)) stood at 23%. Moreover, the “percentage of cells that incorporated BrdU” value in experiment [2] (48 h with 5 μg/ml Poly IC (27% before treatment)) is on record as 9%. The “cell recovery, percent of control” value is on record as 67% with BT483, 75% with SW527, 100% in the experiment with MCF-7 and 33% with Cama-1. In addition, the “time of maximum Stat1 phosphorylation” value in experiment [3] came to 6 h. Moreover, the Stat1 phosphorylation entry in experiment [3] (0 to 24 hours) was “observed”. Moreover, in the experiment with IFN-β, the IFN-β production result is “strongly induced”. The “cell recovery, percent of control, on average” value in experiment [4] was 67.5%. In addition, in the experiment on eye tumors, the “delay of appearance of eye tumors compared to PBS” value is given as “up to 21 days”.

Source of the values: patent publication US20060147456A1, “Induction of apoptosis in toll-like receptor expressing tumor cells” (priority 2004, published 2006).
